In the supplement of paper PMC4862054:
Each block holds one compound with its values, some of them ahead of it.

What was measured:
Hs578T [1] = conditions: 72 h
Procedure: (§1)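 Drug sensitivity and resistance testing (DSRT) of breast cancer cell lines in 384-well plates, 5 concentrations in 10-fold dilutions over a compound-specific 10,000-fold range. After 72 h, cytotoxicity was read by CellTox Green fluorescence and viability by CellTiter-Glo luminescence (multiplexed), normalised to DMSO and benzethonium chloride controls. EC50 is the inflection point of the fitted dose-response curve (bottom asymptote free, so it can be relative for partial curves) and is censored at the highest tested concentration. Rows with DSS 0 (no meaningful response) were excluded.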

DU-4475 [2] = test: normalised viability (% of control), CellTiter-Blue; higher = more viable cells (about 100 = DMSO control); conditions: incubation time: 72 h
Procedure: (§2)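 DSRT, CellTiter-Blue viability, 72 h incubation. Signal is normalised to DMSO and benzethonium chloride controls. Value is the normalised response at dose 9.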

CAL-85-1 [3] = test: as above; conditions: incubation time: 72 h
Procedure: as §2

DU-4475 [4] = conditions: 72 h
Summary of the method: (§3)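 Two sequential readouts followed a 72 h incubation of breast cancer cell lines with compound at 5 concentrations in 10-fold steps over a compound-specific 10,000-fold range: CellTox Green fluorescence (485/520 nm) for cell death, then CellTiter-Glo luminescence, after 10 min at room temperature, for viability. Each plate was normalised to 0.1 % DMSO and a positive kill control. Dose-response curves were fitted for EC50, censored at the top concentration.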

HCC1143 [5] = conditions: 72 h
Summary of the method: as §3

MFM-223 [6] = conditions: 72 h
Summary of the method: as §3

CAL-148 [7] = conditions: 72 h
Summary of the method: as §3

HCC1599 [8] = conditions: 72 h
Summary of the method: as §3

HDQ-P1 [9] = conditions: 72 h
Summary of the method: as §3

DU-4475 [10] = conditions: 72 h; remark: listed apart in the source
Summary of the method: (§4)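 Compound dissolved in 5 µl medium was placed in 384-well plates before 20 µl of breast cancer cell suspension was added, and the plates were incubated for 72 h. Cells then received 2.5 µl CellTiter-Blue for 2 h at 37 °C, and fluorescence was read at 560/590 nm. EC50 values come from percent-inhibition dose-response fits that were censored at the highest concentration, with plates normalised to vehicle and a positive kill control and rows with a zero drug sensitivity score excluded.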

CAL-148 [11] = conditions: 72 h; remark: listed apart in the source
Summary of the method: as §4

CAL-85-1 [12] = conditions: 72 h
Summary of the method: as §4

CAL-51 [13] = conditions: 72 h
Summary of the method: as §4

HDQ-P1 [14] = conditions: 72 h; remark: listed apart in the source
Summary of the method: as §4

BT-549 = conditions: 72 h
Summary of the method: as §4

HCC1937 [15] = conditions: 72 h
Summary of the method: as §4

HCC1143 [16] = conditions: 72 h; remark: listed apart in the source
Summary of the method: as §4

MFM-223 [17] = conditions: 72 h; remark: listed apart in the source
Summary of the method: as §4

Hs578T [18] = conditions: 72 h; remark: listed apart in the source
Summary of the method: as §4

SK-BR-3 = conditions: 72 h
Summary of the method: as §4

CAL-120 [19] = conditions: 72 h
Summary of the method: as §4

MDA-MB-231 [20] = conditions: 72 h
Summary of the method: as §4

MDA-MB-468 [21] = conditions: 72 h
Summary of the method: as §4

HCC1599 [22] = conditions: 72 h; remark: listed apart in the source
Summary of the method: as §4

BT-474 [23] = conditions: 72 h
Summary of the method: as §4

MDA-MB-436 [24] = conditions: 72 h
Summary of the method: as §4

HCC1143 [25] = conditions: 72 h; remark: listed apart in the source
Procedure: as §1

CAL-148 [26] = conditions: 72 h; remark: listed apart in the source
Procedure: as §1

MDA-MB-468 [27] = conditions: 72 h; remark: listed apart in the source
Procedure: as §1

BT-474 [28] = conditions: 72 h; remark: listed apart in the source
Procedure: as §1

CAL-85-1 [29] = conditions: 72 h; remark: listed apart in the source
Procedure: as §1

CAL-51 [30] = conditions: 72 h; remark: listed apart in the source
Procedure: as §1

MDA-MB-436 [31] = conditions: 72 h; remark: listed apart in the source
Procedure: as §1

MDA-MB-453 = conditions: 72 h
Procedure: as §1

CAL-120 [32] = conditions: 72 h; remark: listed apart in the source
Procedure: as §1

MDA-MB-231 [33] = conditions: 72 h; remark: listed apart in the source
Procedure: as §1

MCF-10A = conditions: 72 h
Procedure: as §1

HCC1937 [34] = conditions: 72 h; remark: listed apart in the source
Procedure: as §1

MFM-223 [35] = conditions: 72 h; remark: listed apart in the source
Procedure: as §1

EC50, CellTiter-Glo (HCC1143 [5]): 3330 nM | EC50, CellTiter-Glo (HCC1599 [8]): > 10000 nM | EC50, CellTiter-Blue viability (BT-549): 9680 nM | EC50, CellTiter-Blue viability (HCC1937 [15]): 1110 nM | EC50, CellTiter-Blue viability (HCC1143 [16]): 3710 nM | EC50, CellTiter-Blue viability (SK-BR-3): 5740 nM | EC50, CellTiter-Blue viability (MDA-MB-231 [20]): 2240 nM | EC50, CellTiter-Blue viability (MDA-MB-468 [21]): 6670 nM | EC50, CellTiter-Blue viability (HCC1599 [22]): 9620 nM | EC50, CellTiter-Blue viability (BT-474 [23]): > 10000 nM | EC50, CellTiter-Blue viability (MDA-MB-436 [24]): 2760 nM
SMILES: CN(C)CCN1C(=O)c2cccc3cc(N)cc(c23)C1=O [Amonafide]
normalised viability (DU-4475 [2]; 10000 nM): 1.19% | normalised viability (CAL-85-1 [3]; 10000 nM): 27.6% | EC50, CellTiter-Glo (DU-4475 [4]): 3300 nM | EC50, CellTiter-Glo (MFM-223 [6]): 7400 nM | EC50, CellTiter-Glo (CAL-148 [7]): 4300 nM | EC50, CellTiter-Blue viability (DU-4475 [10]): 3240 nM | EC50, CellTiter-Blue viability (CAL-148 [11]): 1830 nM | EC50, CellTiter-Blue viability (CAL-85-1 [12]): 4450 nM | EC50, CellTiter-Blue viability (CAL-51 [13]): 3320 nM | EC50, CellTiter-Blue viability (HDQ-P1 [14]): 9740 nM | EC50, CellTiter-Blue viability (MFM-223 [17]): 7280 nM | EC50, CellTiter-Blue viability (Hs578T [18]): 9380 nM | EC50, CellTiter-Blue viability (CAL-120 [19]): 3370 nM | EC50, CellTox Green (CAL-148 [26]): 6190 nM | EC50, CellTox Green (CAL-51 [30]): 6260 nM | EC50, CellTox Green (MDA-MB-436 [31]): 44.4 nM

EC50, CellTiter-Glo (HCC1143 [5]): 2030 nM
SMILES: CC(C)c1c(C(=O)Nc2ccccc2)c(-c2ccccc2)c(-c2ccc(F)cc2)n1CC[C@@H](O)C[C@@H](O)CC(=O)O [Atorvastatin]
EC50, CellTiter-Glo (HDQ-P1 [9]): 1250 nM | EC50, CellTox Green (MDA-MB-453): > 10000 nM | EC50, CellTox Green (Hs578T [1]): 3780 nM | EC50, CellTox Green (CAL-120 [32]): 9010 nM | EC50, CellTox Green (MDA-MB-231 [33]): 796 nM | EC50, CellTox Green (MCF-10A): 1940 nM | EC50, CellTox Green (CAL-51 [30]): 668 nM

EC50, CellTiter-Glo (HCC1143 [5]): 17.9 nM
SMILES: Cn1c(=O)n(-c2ccc(C(C)(C)C#N)cc2)c2c3cc(-c4cnc5ccccc5c4)ccc3ncc21 [Dactolisib]
EC50, CellTiter-Glo (DU-4475 [4]): 42.8 nM | EC50, CellTiter-Glo (MFM-223 [6]): 14.8 nM | EC50, CellTiter-Glo (CAL-148 [7]): 18.7 nM | EC50, CellTiter-Glo (HDQ-P1 [9]): 12.8 nM | EC50, CellTox Green (HCC1937 [34]): 80.7 nM | EC50, CellTox Green (MFM-223 [35]): 579 nM | EC50, CellTox Green (CAL-148 [26]): 100 nM | EC50, CellTox Green (CAL-85-1 [29]): 197 nM

More lines, now with the values behind:

SMILES: Nc1ncnc2c1c(COc1cccc(Cl)c1)nn2C1CCOCC1
EC50, CellTox Green (Hs578T [1]): > 10000 nM

SMILES: COc1ccc(-c2ccc3c(N4CCOC[C@@H]4C)nc(N4CCOC[C@@H]4C)nc3n2)cc1CO [AZD8055]
normalised viability (DU-4475 [2]; 10000 nM): 8.6% | normalised viability (CAL-85-1 [3]; 10000 nM): 18.8% | EC50, CellTiter-Glo (DU-4475 [4]): 229 nM | EC50, CellTiter-Glo (HCC1143 [5]): 40.4 nM | EC50, CellTiter-Glo (MFM-223 [6]): 20.3 nM | EC50, CellTiter-Glo (CAL-148 [7]): 64.1 nM | EC50, CellTiter-Glo (HCC1599 [8]): 152 nM | EC50, CellTiter-Glo (HDQ-P1 [9]): 30.5 nM | EC50, CellTiter-Blue viability (DU-4475 [10]): 104 nM | EC50, CellTiter-Blue viability (CAL-148 [11]): 34.5 nM | EC50, CellTiter-Blue viability (CAL-85-1 [12]): 34.7 nM | EC50, CellTiter-Blue viability (CAL-51 [13]): 21.9 nM | EC50, CellTiter-Blue viability (HDQ-P1 [14]): 23.8 nM | EC50, CellTiter-Blue viability (BT-549): 61 nM | EC50, CellTiter-Blue viability (HCC1937 [15]): 15.4 nM | EC50, CellTiter-Blue viability (HCC1143 [16]): 79.2 nM | EC50, CellTiter-Blue viability (MFM-223 [17]): 18.7 nM | EC50, CellTiter-Blue viability (Hs578T [18]): 36.9 nM | EC50, CellTiter-Blue viability (SK-BR-3): 20.1 nM | EC50, CellTiter-Blue viability (CAL-120 [19]): 45.4 nM | EC50, CellTiter-Blue viability (MDA-MB-231 [20]): 47.4 nM | EC50, CellTiter-Blue viability (MDA-MB-468 [21]): 149 nM | EC50, CellTiter-Blue viability (HCC1599 [22]): 62.8 nM | EC50, CellTiter-Blue viability (BT-474 [23]): 83.8 nM | EC50, CellTiter-Blue viability (MDA-MB-436 [24]): 106 nM | EC50, CellTox Green (HCC1143 [25]): 1470 nM | EC50, CellTox Green (CAL-148 [26]): 30.7 nM | EC50, CellTox Green (MDA-MB-468 [27]): 6940 nM | EC50, CellTox Green (BT-474 [28]): 9150 nM | EC50, CellTox Green (CAL-85-1 [29]): > 10000 nM | EC50, CellTox Green (CAL-51 [30]): 5.2 nM

SMILES: C[C@]12CC[C@H](O)CC1=CC[C@@H]1[C@@H]2CC[C@]2(C)C(c3cccnc3)=CC[C@@H]12 [Abiraterone]
normalised viability (DU-4475 [2]; 5000 nM): 93.3% | normalised viability (CAL-85-1 [3]; 5000 nM): 82.1%

SMILES: CC(C)(C#N)c1cc(Cn2cncn2)cc(C(C)(C)C#N)c1 [Anastrozole]
normalised viability (DU-4475 [2]; 10000 nM): 112% | normalised viability (CAL-85-1 [3]; 10000 nM): 93.9% | EC50, CellTox Green (MDA-MB-453): > 10000 nM

SMILES: O=C(O)CCCc1ccc(N(CCCl)CCCl)cc1 [Chlorambucil]
normalised viability (DU-4475 [2]; 10000 nM): 90.9% | normalised viability (CAL-85-1 [3]; 10000 nM): 98% | EC50, CellTiter-Blue viability (HCC1937 [15]): 731 nM | EC50, CellTiter-Blue viability (MDA-MB-468 [21]): 5340 nM | EC50, CellTox Green (MDA-MB-436 [31]): > 10000 nM
